Measurements: patent US6663846B1, “Devices and methods for monitoring drug therapy compliance” (priority 1998, dated 2003)

Legend:
[1] = humans; cited from earlier work
[2] = Emission spectra, front-face illumination, excitation at 600 nm; assay type: physicochemical; details: for emission peak: in 0.5% intralipid; for emission maximum: in water
Protocol: All fluorescence measurements were performed using front-face illumination and detection, using the sample holder shown in FIG. 18. The incident light was redirected from the usual position using two mirrors. The position of the sample could be adjusted with a movable stage. The re-emergent light passed through one or more optical filters prior to reaching the destination.
The sample consisted of either a cuvette containing the intralipid, or a quartz slide covering the chicken muscle and skin (FIG. 19). Excitation at 600 nm was provided by the fundamental output of a rhodamine 6G dye laser. This dye laser was synchronously pumped by a mode-locked argon ion laser, and cavity dumped at 1.88 MHz.
For the present studies we used two fluorophores with ns decay times, Rh800 and IcG, and a long lifetime metal ligand complex. We refer to this long lifetime reference as the Ru complex (FIG. 1). All three fluorophores can be excited at 600 nm. In water Rh800 emits maximally near 706 nm, and IcG near 805 nm. […] The emission spectra of Rh800 and IcG in 0.5% intralipid is similar to those observed in water (FIG. 2).

[3] = Frequency-domain intensity decay (fluorescence lifetime) measurements; assay type: physicochemical; details: for decay time: Rh800 in 0.5% intralipid, Ru complex in PVA film
Protocol: Frequency domain intensity decay measurements were performed as described previously. Phase angles and modulation measurements at frequencies greater than 1.88 MHz were accomplished using the harmonic content of the picosecond pulses. The excitation was polarized vertically, and the emission detected without an emission polarizer. The re-emergent light was either observed directly, or through two cut-off filters (630 and 660 nm) to remove scattered light and/or attenuate the fluorophore emission relative to that of the long lived reference.
A long lifetime reference signal was provided by [Ru(bPY)2(dppz)](PF6)^2 in a polyvinyl alcohol (PVA) film, where bpy is 2,2′-bipyridine and dppz is dipyrido[3,2-a:2′,3′-cl]phenazine. Such metal-ligand complexes are known to display lifetimes from 100 ns to 13 (s. The intensity decay time of [Ru(bpy)2(dppz)](PF6)2 in the PVA film was near 800 ns (Table 1 as shown in FIG. 20).
The intensity decay data was analyzed in terms of the multi-exponential model [formula]
In this expression αi represents the pre-exponential factors associated with each lifetime τi. The fractional contribution of each decay time component to the steady state intensity is given by [formula]
The values of Σαi and Σfi are typically normalized to unity. The mean lifetime is given by [formula]
In the frequency-domain measurements the measured quantities are the phase shift of the emission […] and its modulation (m107) at the light modulation frequency ωi in radians/sec. The values of αi and τi are determined by non-linear least squares fitting and minimization of the goodness-of-fit parameter X^2R. [formula]
In this expression the subscript c refers to calculated values of φω and mω for assumed values of αi and τi and ν is the number of degrees of freedom. δω and δm represent the uncertainties in the measured values. In some cases we performed a global analysis of data measured at more than one fluorophore concentrations. In this case the sum in equation 3 extends over these multiple concentrations (k).
We examined the frequency-domain intensity decay of Rh800 and IcG in 0.5% intralipid. As the concentration of Rh800 increased the frequency response shifted to higher frequency (FIG. 5). […] In 0.5% intralipid the intensity decay of Rh800 becomes more complex. The data could be fit to a two decay time model. The individual decay times and the mean decay times decreased with increasing Rh800 concentrations (FIG. 6). Similar results are found for IcG, with the decay times and mean decay time decreasing with increasing IcG concentration (Table III, as shown in FIG. 22).

[4] = cited from earlier work

Compound | clearance from circulation [1] | emission peak [2] [nm] | emission maximum [2] [nm] | decay time [3] [ns] | intensity decay time ([3]; in water, no intralipid, single exponential) [ns] | intensity decay time in PVA film ([3]; polyvinyl alcohol film) [ns] | fluorescence in water [4]
CC1(C)C(/C=C/C=C/C=C/C=C2\N(CCCCS(=O)(=O)O)c3ccc4ccccc4c3C2(C)C)=[N+](CCCCS(=O)(=O)[O-])c2ccc3ccccc3c21 [IcG, indocyanine green] | rapidly cleared from circulation | ~820 | ~805 |  |  |  | 
Rhodamine 800 [Rh800] |  | ~710 | ~706 | 1.62 | 0.686 |  | 
Ruthenium bis-2,2′-bipyridine dipyridophenazine [Ru complex] |  |  |  | 834 |  | ~800 | essentially non-fluorescent in water
